The test system of one assay is Toledo cells. The assay is described as follows: Toledo cell proliferation inhibition assay. It counts as cell-based. To be noted: Homo sapiens, Toledo, 144 h; six-day assay, CellTiter-Glo. The procedure:
• A. Purpose: to determine the effects of compounds on Toledo cells through a six-day cell proliferation assay. • B. Reagents and materials: • 1. Cell culture medium: RPMI 1640+10% FBS • 2. 384-well cell culture plate (Corning, item #3764) • 3. 0.4% Taipan Blue Staining Solution (Thermo Fisher, item #T10282) • 4. cell counting plate (Thermo Fisher, item #C10228) • 5. 50 ml reagent reservoir (Corning, item #4870) • 6. 50 ml conical sterile polypropylene centrifuge tube (Thermo Fisher, item #339653) • 7. Automatic cell counter (Thermo Fisher, item #AMQAX1000) • 8. CellTiter-Glo Luminescent Cell Viability Detection Reagent (Promega, item #G7572) • 9. SpectraMax i3x Multi-Mode Enzyme Labeling Instrument (Megaman Molecular Instruments, item #5024062) • C. Experimental method • 1. Resuspending the cells with a pipette. • 2. 0.4% Taipan blue staining solution and Toledo cells were mixed in equal proportion, and the cells were counted using an automatic cell counter. • 3. Toledo cells were diluted to a final concentration of 2000 cells per well and transferred to a 50 ml reagent reservoir. • 4. Diluted Toledo cells were added to a 384-well cell culture plate, 40 ul per well. • 5. The cells were shortly centrifuged and settled. • 6. The cells were incubated in a 37° C., 5% CO2 cell culture incubator. • 7. The substrate in the CellTiter-Glo Luminescent Cell Viability Detection Reagent was mixed with the solution. • 8. After six days, the 384-well cell culture plate was taken from the incubator and 20 ul of configured CellTiter-Glo reagent was added to each well. • 9. 384-well cell culture platewasmixed in an orbital shaker for 30 minutes. • 10. Signal of luminescence was detected with a SpectraMax i3x multi-mode enzyme labeling instrument.
For orientation: ATP-based viability assays read luminescence as a measure of living cells.

A further assay has as its target PRMT1 (Homo sapiens, UniProt Q99873). Kind of assay: PRMT1 enzyme activity test. Type of assay: biochemical. To be noted: 0.5 nM PRMT1, 3H-SAM, peptide. On the procedure: PRMT1 enzyme activity test were performed in a buffer prepared on the same day 5 consisting of 10 mMTirs-HCl (pH=8.0), 0.01% Tween-20 and 1 mM DTT. The compounds were prepared to the highest inhibitor concentration ultimately required in the 100× reaction with 100% DMSO and then transferred to one well of a 384-well Echo plate (Echo-eligible 384-well polypropylene microplates 2.0, transparent, flat-bottomed) and sequentially diluted in the next well with a 3-fold dilution of 100% DMSO, and so on, with a total of 10 concentrations based on Precision. 100% DMSO was added to two empty wells to serve as control well without compound and control well without enzyme in the same 384-well Echo plate. 250 nL of compound was transferred from each well of the 384-well Echo plate to a 384-well assay plate (384-well polypropylene storage microplate) via the Echo 550 liquid processor. For wells with compounds and control well without compound, a mixture (15 uL) containing PRMT1 enzyme was added to the 384-well assay plate. For control wells without enzyme, the mixture containing the assay buffer (15 uL) was added instead. The compounds were allowed to incubate with PRMT1 for 15 minutes at room temperature, and then a mixture containing ^3H-SAM and peptide (10 uL) was added to start the reaction (final volume=25 uL). The final concentrations of the components were as follows: 0.5 nM for PRMT1, 0.25 uM for ^3H-SAM, 0.1 uM for the peptide, and 1% DMSO. After 120 min of incubation, the assay was terminated by the addition of non-radiolabeled SAM (5 uL) to a final concentration of 125 uM, which diluted 3H-SAM to a level at which its incorporation into the peptide substrate was no longer detected. 25 μL of the reaction solution from the 384-well assay plate was then transferred to a 384-well detection plate (Streptavidin FlashPlate HTS PLUS, high volume, 384 wells). The biotinylated peptide was allowed to bind to the surface of the antibiotic protein streptavidin for at least 60 minutes at room temperature. The Flashplate was then washed three times with 0.1% Tween-20 in a BioTek plate washer. Plates were read on a microplate counter (MicroBeta2) to measure the amount of ^3H-labeled peptide bound to the surface of the detection plate, measured in counts per minute (cpm).
The raw data were copied from the Reader and the inhibition values were calculated in Excel by Equation (1), Equation (1): Inh %=(CPMmax−CPMcmpd)/(CPMmax−CPMmin)*100, wherein the Max signal was obtained from the enzyme-substrate interaction and the Min signal was obtained from the substrate. IC50 values were obtained by fitting the data through equation (2) using XLFit add-in for Excel version […]. Equation (2): Y=Bottom+(Top-Bottom)/(1+((IC50/X)[…])), wherein, Y represents inhibition percentage and X represents compound concentration.

Bounds are passed on as bounds.

Sequence of PRMT1 (Q99873 whole entry): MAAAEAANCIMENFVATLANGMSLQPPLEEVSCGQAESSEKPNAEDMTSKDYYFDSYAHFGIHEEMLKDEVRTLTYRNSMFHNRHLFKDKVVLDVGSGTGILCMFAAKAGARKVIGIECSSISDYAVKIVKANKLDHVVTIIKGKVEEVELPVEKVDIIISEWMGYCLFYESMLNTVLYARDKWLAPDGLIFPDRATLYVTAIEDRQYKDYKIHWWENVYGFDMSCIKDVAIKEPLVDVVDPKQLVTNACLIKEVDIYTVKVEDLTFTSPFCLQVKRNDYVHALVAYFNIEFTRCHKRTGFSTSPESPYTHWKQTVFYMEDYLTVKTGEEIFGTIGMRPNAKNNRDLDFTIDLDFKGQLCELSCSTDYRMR

Regarding `CNCCN(C)Cc1ncccc1N1CC2CC(C1)c1ccccc12` [P119], the IC50 was 1 to 5 µM in the assay with Toledo cells and no less than 0.5 µM at PRMT1.

As for `CNCCN(C)Cc1ncccc1C1CCN(CC(F)(F)F)CC1` [P120], the IC50 in the assay with Toledo cells is 1 to 5 µM; at PRMT1, less than 0.05 µM.

Consider `CCOCC1(COCC)CCN(c2c(Br)cccc2CN(C)CCNC)CC1` [P123], for which the IC50 in the assay with Toledo cells was 1 to 5 µM; on PRMT1, less than 0.05 µM.

With `CNCCN(C)Cc1ncccc1N1CCC(N2CCN(C(C)C)CC2)CC1` [P124], the IC50 in the assay on Toledo cells was 1 to 5 µM; against PRMT1, no less than 0.5 µM.

Consider `CNCCN(C)Cc1ncccc1C1CCCCC1` [P125], for which the IC50 in the assay with Toledo cells is less than 1 µM; on PRMT1 it was less than 0.05 µM.

As to `CNCCN(C)Cc1ncccc1N1CCC(N2CCCCC2)CC1` [P126], the values for the IC50 in the assay on Toledo cells and against PRMT1 were 1 to 5 µM and less than 0.05 µM, respectively.

Turning to `CNCCN(C)Cc1ncccc1N1CCc2ccccc2C1` [P127], the figures for the IC50 in the assay with Toledo cells and on PRMT1 were 1 to 5 µM and less than 0.05 µM, respectively.

Regarding `CNCCN(C)Cc1ncccc1N1CCCc2ccccc21` [P128], the IC50 with Toledo cells was no less than 5 µM; at PRMT1, no less than 0.5 µM.

For the molecule `CNCCN(C)Cc1ccc(F)cc1C1CCc2nc3ccccc3nc2CC1` [P132], the IC50 in the assay with Toledo cells was less than 1 µM; on PRMT1 it was less than 0.05 µM.

Turning to `CNCCN(C)Cc1ncccc1C1CCN(c2ccc(-c3ccncc3)cc2)CC1` [P133], the half-inhibitory concentration (IC50) was less than 1 µM in the assay on Toledo cells and less than 0.05 µM against PRMT1.

Consider `CCOCc1cccc(N2CCC(c3cccnc3CN(C)CCNC)CC2)c1` [P134], for which the IC50 in the assay on Toledo cells is 1 to 5 µM; on PRMT1, less than 0.05 µM.

For the molecule `CNCCN(C)Cc1ccc(-c2cn[nH]c2)cc1C1CCc2cc(F)c(F)cc2CC1` [P135], the IC50 in the assay with Toledo cells was less than 1 µM; against PRMT1 it was less than 0.05 µM.

Turning to `CNCCN(C)Cc1ccc(CC(=O)NC)cc1C1CCN(c2cccc(C)c2)CC1` [P140], the IC50 in the assay on Toledo cells was less than 1 µM; against PRMT1 it was less than 0.05 µM.

Consider `CNCCN(C)Cc1ncccc1N1CCC(Oc2cc(C)ccc2Cl)CC1` [P144], for which the IC50 is less than 1 µM with Toledo cells and less than 0.05 µM against PRMT1.

As to `CNCCN(C)Cc1ncccc1N1CCCCCC1` [P145], the results for the IC50 in the assay with Toledo cells and against PRMT1 were 1 to 5 µM and less than 0.05 µM, respectively.

Regarding `CNCCN(C)Cc1ccc2[nH]nc(C)c2c1C1CCc2cc(F)c(F)cc2CC1` [P146, N1-((4-(2,3-difluoro-6,7,8,9-tetrahydro-5H-benzo[7]cyclopenten-7-yl)-3-methyl-1H-indazol-5-yl)methyl)-N1,N2-dimethylethane-1,2-diamine], the IC50 in the assay on Toledo cells is less than 1 µM; at PRMT1 it was less than 0.05 µM.

For `CNCCN(C)Cc1ccc(F)cc1C1CCN(c2nc(C)cc(N3CCCC3)n2)CC1` [P151], the IC50 is 1 to 5 µM in the assay with Toledo cells and less than 0.05 µM on PRMT1.

Consider `CNCCN(C)Cc1ccc2c(c1C1CCN(c3cccc(C)c3)CC1)CCC(=O)N2` [P155], for which the IC50 is less than 1 µM in the assay with Toledo cells and less than 0.05 µM against PRMT1.

For `CNCCN(C)Cc1cc(C(=O)NC)ccc1C1CCN(c2cccc(C)c2)CC1` [P159], the IC50 in the assay on Toledo cells was no less than 5 µM; at PRMT1, no less than 0.5 µM.

Take `CNCCN(C)Cc1ccc(C(=O)NC)cc1C1CCN(c2cccc(C)c2)CC1` [P160]: the values for the IC50 in the assay on Toledo cells and at PRMT1 were less than 1 µM and less than 0.05 µM, respectively.

With `CNCCN(C)Cc1ncccc1N1CCN(C(C)C)CC1` [P161], the IC50 is less than 1 µM in the assay with Toledo cells and less than 0.05 µM at PRMT1.

As to `CNCCN(C)Cc1ccc(C)nc1C1CCN(c2cccc(NC)c2)CC1` [P162], the IC50 in the assay with Toledo cells is less than 1 µM; against PRMT1, 0.05 to 0.5 µM.

As to `CNCCN(C)Cc1ncccc1C1CCN(c2ccc3c(c2)CCO3)CC1` [P163], the IC50 in the assay with Toledo cells is less than 1 µM; on PRMT1, less than 0.05 µM.

Take `CNCCN(C)Cc1ncccc1C1CCN(c2cccc3c2OCC3)CC1` [P164]: the IC50 is 1 to 5 µM in the assay on Toledo cells and less than 0.05 µM on PRMT1.

In the case of `CNCCN(C)Cc1ncccc1N1CCC(OCc2ccccc2)CC1` [P166], the IC50 is less than 1 µM with Toledo cells and less than 0.05 µM against PRMT1.

For the molecule `CNCCN(C)Cc1ncccc1C1CCN(c2ccc(OC)cc2)CC1` [P168], the IC50 in the assay on Toledo cells was 1 to 5 µM; against PRMT1 it was less than 0.05 µM.

For `CNCCN(C)Cc1ncccc1C1CCN(c2cccc(OC)c2)CC1` [P169], the IC50 with Toledo cells is less than 1 µM; at PRMT1, less than 0.05 µM.

Regarding `CNCCN(C)Cc1ccc(F)cc1C1CCN(c2nccc(N3CCCC3)n2)CC1` [P172], the IC50 is less than 1 µM in the assay with Toledo cells and less than 0.05 µM against PRMT1.

For the molecule `CCOC[C@H]1CC[C@H](c2cccnc2CN(C)CCNC)CC1` [P173], the IC50 in the assay on Toledo cells was less than 1 µM; at PRMT1, less than 0.05 µM.

In the case of `CCOC[C@H]1CC[C@@H](c2cccnc2CN(C)CCNC)CC1` [P174], the IC50 was 1 to 5 µM in the assay on Toledo cells and less than 0.05 µM on PRMT1.

Turning to `CNCCN(C)Cc1ccc2[nH]c(C)nc2c1C1CCN(c2cccc(C)c2)CC1` [P176], the results for the IC50 in the assay on Toledo cells and against PRMT1 were less than 1 µM and less than 0.05 µM, respectively.

Take `CNCCN(C)Cc1ncccc1N1CCCCC1` [P177]: the IC50 with Toledo cells was 1 to 5 µM; against PRMT1, less than 0.05 µM.

Regarding `CNCCN(C)Cc1ncccc1N1CCC(Oc2ccc(F)cc2)CC1` [P178], the IC50 in the assay on Toledo cells was less than 1 µM; on PRMT1, less than 0.05 µM.

As to `CNCCN(C)Cc1ccc2c(c1C1CCN(c3cccc(C)c3)CC1)CC(=O)N2` [P180], the figures for the IC50 in the assay on Toledo cells and against PRMT1 were less than 1 µM and less than 0.05 µM, respectively.

In the case of `CCOCC1(CC)CCN(c2cccnc2CN(C)CCNC)CC1` [P182], the IC50 in the assay with Toledo cells is less than 1 µM; on PRMT1, less than 0.05 µM.

For the molecule `CNCCN(C)Cc1cc(F)c2[nH]ncc2c1C1CCN(c2cccc(C)c2)CC1` [P183], the IC50 was less than 1 µM in the assay on Toledo cells and less than 0.05 µM against PRMT1.

As for `CNCCN(C)Cc1ccc(C)nc1C1CCN(c2ccc(C#N)cc2)CC1` [P188], the figures for the half-inhibitory concentration (IC50) in the assay with Toledo cells and at PRMT1 were 1 to 5 µM and less than 0.05 µM, respectively.

As to `CNCCN(C)Cc1ccc2[nH]cnc2c1C1CCN(c2cccc(C)c2)CC1` [P189], the IC50 was less than 1 µM in the assay on Toledo cells and less than 0.05 µM against PRMT1.

For the molecule `CNCCN(C)Cc1ccc2[nH]ncc2c1C1CCN(c2cccc(C)c2)CC1` [P190, N^1,N^2-dimethyl-N^1-((4-(1-(m-tolyl)piperidin-4-yl)-1H-indazol-5-yl)methyl)ethane-1,2-dia mine], the IC50 was less than 1 µM with Toledo cells and less than 0.05 µM against PRMT1.

Consider `CNCCN(C)Cc1ncccc1C1CCN(c2ccc(C(=O)N(C)C)cc2)CC1` [P192], for which the IC50 in the assay with Toledo cells was no less than 5 µM; against PRMT1 it was less than 0.05 µM.

As for `CNCCN(C)Cc1ncccc1C1CCN(c2ccnc(C)c2)CC1` [P193], the IC50 in the assay on Toledo cells is 1 to 5 µM; at PRMT1, less than 0.05 µM.

Regarding `CNCCN(C)Cc1ncccc1N1CCC(Nc2ccccc2)CC1` [P194], the values for the IC50 with Toledo cells and against PRMT1 were 1 to 5 µM and less than 0.05 µM, respectively.

As to `CNCCN(C)Cc1ccc(CC(N)=O)cc1C1CCN(c2cccc(C)c2)CC1` [P195], the values for the IC50 in the assay on Toledo cells and against PRMT1 were less than 1 µM and less than 0.05 µM, respectively.

For `CCOCC1(COCC)CCC(c2cc(F)cnc2CN(C)CCNC)CC1` [P196], the IC50 in the assay with Toledo cells was less than 1 µM; against PRMT1, less than 0.05 µM.

`CNCCN(C)Cc1ncccc1N1CCCC1` [P197]: the IC50 is no less than 5 µM in the assay on Toledo cells and no less than 0.5 µM at PRMT1.

Usually IC50 stands for the concentration needed to halve the response being measured. Low values mean higher potency, high ones lower potency.
